In ChEMBL document CHEMBL1129862, “2,3-Substituted 2-azanorbornanes as polar -turn mimetics” (Bioorg Med Chem Lett, 1997):
Where a SMILES comes first, the peptide text is derived from it. Bridges are numbered along the chain shown (N, C = ends). [ ]: non-standard residue; d: D form. Dap = NC[C@H](N)C(=O)O

Experiments:
Substance-P receptor [1] = target: T1, Substance-P receptor (Homo sapiens, UniProt P25103); experiment: Tested for binding affinity against [125I]BH-SP binding to neurokinin-1 (NK-1) receptor in human IM-9 cells; type: cell-based
T1 sequence (P25103 whole entry): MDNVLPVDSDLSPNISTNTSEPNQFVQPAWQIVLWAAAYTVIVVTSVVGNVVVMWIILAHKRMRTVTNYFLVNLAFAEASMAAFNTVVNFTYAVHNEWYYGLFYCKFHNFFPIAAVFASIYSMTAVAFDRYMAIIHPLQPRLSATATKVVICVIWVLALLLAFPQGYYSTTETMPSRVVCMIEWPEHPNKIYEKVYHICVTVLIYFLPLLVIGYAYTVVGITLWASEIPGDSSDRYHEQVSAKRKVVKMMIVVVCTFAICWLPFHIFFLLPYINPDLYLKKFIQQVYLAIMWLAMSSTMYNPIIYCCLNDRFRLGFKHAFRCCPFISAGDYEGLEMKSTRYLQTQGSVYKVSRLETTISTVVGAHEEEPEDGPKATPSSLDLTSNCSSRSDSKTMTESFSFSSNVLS

[2] = target: T2, Substance-K receptor (Mesocricetus auratus) (UniProt P51144); experiment: Inhibition by the compound against [125I]NKA binding to neurokinin-2 (NK-2) receptor in hamster urinary bladder at 10 uM concentration
T2 sequence (whole entry): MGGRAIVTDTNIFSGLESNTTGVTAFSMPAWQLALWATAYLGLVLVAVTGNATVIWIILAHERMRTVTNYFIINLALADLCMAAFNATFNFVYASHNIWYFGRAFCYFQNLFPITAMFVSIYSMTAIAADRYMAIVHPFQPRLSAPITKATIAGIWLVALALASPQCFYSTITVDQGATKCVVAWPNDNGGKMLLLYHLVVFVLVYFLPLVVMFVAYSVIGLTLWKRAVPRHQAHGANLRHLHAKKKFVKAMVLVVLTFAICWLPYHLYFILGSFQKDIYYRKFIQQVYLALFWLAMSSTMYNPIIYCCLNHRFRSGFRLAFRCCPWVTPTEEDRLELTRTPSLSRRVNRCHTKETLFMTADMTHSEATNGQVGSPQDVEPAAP

Substance-K receptor = target: T3, Substance-K receptor (Mesocricetus auratus, UniProt P51144); experiment: Tested for binding affinity of compound against [125I]NKA binding to neurokinin-2 (NK-2) receptor in hamster urinary bladder
T3 sequence (P51144 whole entry): T2 sequence (whole entry)

Neuromedin-K receptor [3] = target: T4, Neuromedin-K receptor (Homo sapiens, UniProt P29371); experiment: Tested for binding affinity of compound against [125I][MePhe]-NKB binding to human Tachykinin receptor 3 in stably expressed CHO cells; Inactive; type: cell-based
T4 sequence (P29371 whole entry): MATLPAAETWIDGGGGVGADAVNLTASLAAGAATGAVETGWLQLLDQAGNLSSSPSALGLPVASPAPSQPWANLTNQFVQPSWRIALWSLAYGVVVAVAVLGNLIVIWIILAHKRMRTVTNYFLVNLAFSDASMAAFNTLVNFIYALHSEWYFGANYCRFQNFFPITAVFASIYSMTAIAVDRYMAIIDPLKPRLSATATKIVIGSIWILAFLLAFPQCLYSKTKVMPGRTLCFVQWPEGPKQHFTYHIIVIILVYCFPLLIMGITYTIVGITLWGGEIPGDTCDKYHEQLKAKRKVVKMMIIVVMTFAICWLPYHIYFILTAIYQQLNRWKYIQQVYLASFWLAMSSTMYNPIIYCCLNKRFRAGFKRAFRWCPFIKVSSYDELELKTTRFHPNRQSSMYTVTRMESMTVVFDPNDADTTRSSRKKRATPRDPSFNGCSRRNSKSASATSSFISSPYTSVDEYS

Neuromedin-K receptor [4] = target: T4, Neuromedin-K receptor; experiment: Tested for binding affinity of compound against [125I][MePhe]-NKB binding to Tachykinin receptor 3 in stably expressed CHO cells; type: cell-based
Substance-P receptor [5] = target: T1, Substance-P receptor; experiment: Inhibition by the compound against [125I]BH-SP radioligand binding to neurokinin-1 (NK-1) receptor in human IM-9 cells at 10 uM concentration; type: cell-based
[6] = target: T5, Neuromedin-K receptor (Homo sapiens) (UniProt P29371); experiment: Inhibition by the compound against [125I]-[MePhe]-NKB binding to human Tachykinin receptor 3 in stably expressed CHO cells at 10 uM concentration; type: cell-based
T5 sequence (whole entry): T4 sequence (P29371 whole entry)

| IC50 (Substance-P receptor [1]) [µM] | inhibition [2] [%] | IC50 (Substance-K receptor) [nM] | IC50 (Neuromedin-K receptor [3]) | IC50 (Neuromedin-K receptor [4]) [µM] | inhibition (Substance-P receptor [5]) [%] | inhibition [6] [%] | SMILES |
| --- | --- | --- | --- | --- | --- | --- | --- |
| 3.7 | 14 |  |  |  |  |  | O=C(Cc1c[nH]c2ccccc12)N1CCC(Cc2ccccc2)C1 (stereo unspecified) |
| 0.8 |  | 0.079 | Not Active |  |  |  | CSCC[C@@H]1NC(=O)[C@H](CC(C)C)NC(=O)[C@@H]2CNC(=O)C[C@H](NC1=O)C(=O)N[C@@H](Cc1c[nH]c3ccccc13)C(=O)N[C@@H](Cc1ccccc1)C(=O)N2 (cyclo(DWF[Dap]LM); lactam 1-4) |
|  | 18 |  |  | 10 | 55 |  | O=C(NCc1cn(C(=O)OCc2ccccc2)c2ccccc12)N1C2CCC(C2)C1Cc1ccccc1 (stereo unspecified) |
| 6.7 | 31 |  |  |  |  | 35 | O=C(NCc1c[nH]c2ccccc12)N1C2CCC(C2)C1Cc1ccccc1 (stereo unspecified) |
